Measured values reported in patent US20020077365A1, “Method for increasing the effectiveness of antiinfective” (The University of Texas System, priority 2000, published 2002).
Where two headings read alike, the source gives them in different places.

Experiments:
[1] = test system: Arabidopsis thaliana WS wild-type plants; test: Plant sensitivity to herbicides with or without ecto-phosphatase inhibitor; assay type: in vivo; details: inhibitor 5 μg/ml; surflan solution 0.2-20 μl/ml in germination media
Procedure: Increasing Plant Sensitivity to Herbicides: Arabidopsis thaliana WS wild-type plants were plated on germination media containing two commonly used herbicides, surflan and pendimethalin, in the presence and absence of an ecto-phosphatase inhibitor of Formula II and monitored for their growth in a 22° C. incubator under constant fluorescent illumination.
More specifically, germination media was prepared containing 20 μl/ml, 10 μl/ml, 2 μl/ml, 1 μl/ml, and 0.2 μl/ml of a surflan solution made at the manufacturer's recommended concentration. Compound of Formula II was added to a portion of the germination media at a final concentration of 5 μg/ml.
Arabidopsis thahiana WS wild-type seeds were surface sterilized in a 20% bleach solution for 20 minutes, washed three times in double distilled waster, and resuspended in 0.1% agarose solution. The seeds were then pipetted onto plates containing approximately 3 ml of germination media containing the various concentrations of surflan with and without compound of Formula II. All plates were placed in a 22° C. incubator under constant fluorescent illumination. Growth was assessed daily.
Similar experiments were performed with pendimethalin in the presence and absence of compound of Formula II.

[2] = test system: Arabidopsis thaliana plants (wild-type and AtPGP-1 overexpressing); assay type: in vivo; details: for germination: phosphatase inhibitor 1 mM plus cycloheximide 500 ng/ml; for germination rate: substance alone (cycloheximide 500 ng/ml or phosphatase inhibitor 1 mM), after 10-20 days
Procedure: Plant Growth: Arabidopsis seeds were sown in a solid germination media containing MS salts (Sigma Chemical, St. Louis, Mo.), 2% sucrose, 0.8% agar, and vitamins (Valvekens et al., 1992). For selection assays, one of the following, or a combination of both, was added to media (cooled to less than 50° C. before adding) immediately prior to pouring into plates: cycloheximide at a final concentration of 500 ng/ml; α,β-methyleneadenosine 5′-diphosphate at a final concentration of 1 mM. Plant growth was measured by germination percentage after 10-20 days. All other materials and methods were discussed above in Example 2.

[3] = test system: S. cerevisiae yeast cells (YMR4 and INVSC, with or without AtPGP-1); test: Yeast growth in suspension with extracellular ATP, adenosine, phosphate and cycloheximide (turbidity OD600); assay type: cell-based; details: for effect on resistance to cycloheximide: YMR4 cells, added to media with cycloheximide, 72 hours, FIG. 14; for yeast growth in high levels of ATP: 100 mM ATP, FIG. 13
Procedure: Cell lines: Cell lines were the same as those described above in Example 2 and 3. YMR4 MDR1 is the phosphatase mutant yeast strain overexpressing AtPGP-1; YMR4 pVT11 contains vector alone; INVSC MDR1 is the wild-type yeast strain overexpressing AtPGP-1; and INVSC pVT101 contains vector alone.
Selection in drug: To create drug resistant yeast strains, all four cell lines were grown up in the presence of 500 ng/ml of cycloheximide, and transferred to other cycloheximide containing plates after a period of four to six days. This transfer of cell lines and subculturing continued such that the yeast cells grew in the presence of cycloheximide for a period of at least a month.
Growth of cells in suspension for ATP and drug selection experiments: Cells were transferred into 5 ml YNB -URA liquid media for turbidity measurements. All cell lines (both non-drug selected and drug-selected) were grown in media with the addition of either nothing, 500 ng/ml cycloheximide, 100 mM ATP, or 500 ng/ml cycloheximide and 100 mM ATP. Turbidity readings were taken after 48 hours.
Growth of cell lines in suspension for salvage pathway experiments: All cell lines were grown in liquid media either containing drug (for the drug selected lines) or not containing drug (for the non-drug selected lines). When the cultures reached a turbidity of 1.00 as measured at a wavelength of 600 in a spectrophotometer (OD600=1.00), 10 μl of each culture was then removed and placed in either media with nothing added, 3 mM potassium phosphate; 3 mM adenosine; 9 mM potassium phosphate and 3 mM adenosine (for controls); potassium phosphate and cycloheximide; adenosine and cycloheximide; adenosine, cycloheximide, and potassium phosphate. Cell cultures were further grown for 72 hours, and their turbidity was determined by OD600 readings on a spectrophotometer.

[4] = test system: wild-type yeast strain INVSC with plasmid pvtl01-U; test: Yeast filter disk zone of inhibition with fungicide chlorothalonil with or without ecto-phosphatase inhibitor; assay type: cell-based, S. cerevisiae; details: plates without ecto-phosphatase inhibitor, 48 hours
Procedure: Increasing Yeast Sensitivity to Fungicide. Additional experiment were performed to test the ability of ecto-phosphatase inhibitors to increase the effectiveness of the commonly used fungicide chlorothalonil. Yeast was plated on media with or without an ecto-phosphatase inhibitor of Formula X where a paper filter disk soaked in the fungicide was added to the plate. After 48 hours, the zone of inhibition of yeast growth around the filter disk was calculated.
The wild-type yeast strain INVSC with plasmid pvtl01-U (for selection on media lacking uracil) was used in all experiments and each experiment was performed in triplicate. Media used was made by combining YNB (Bio 101, Vista, Calif.), the drop out supplement CSM-URA (Bio 101, Vista, CA), and glucose in water. […]
Twenty μl of an overnight saturated culture of yeast was plated onto each plate, spread, and allowed to dry for 20 minutes. […] The zone of inhibition of yeast growth around the disk was assessed after 48 hours.
Plates with chlorothalonil disks indeed contained a zone of inhibition surrounding the disk. […] The zone of inhibition was calculated by measuring the radius from the center of the disk to the point of noticeable yeast growth (at least 10 measurements per plate), averaging the radii measurements, and using the average radius of the plates to calculate the circular area of the zone of inhibition.

[5] = test system: Saccharomyces cerevisiae INVSC1 and YMR4; test: Yeast growth selection in drug (plates / liquid turbidity); assay type: cell-based
From the text: Expression of AtPGP-1 in yeast: The AtPGP-1 cDNA (Arabidopsis thaliana MDR gene, accession #X61370) was subdloned into pVT101 downstream of the ADH promoter to create the AtPGP-1/pVT101 construct. AtPGP-1/pVT101 and pVT101 were transformed into Saccharomyces cerevisiae INVSC1 (genotype: MAT, his3-1, leu2, trp1-289, ura3-52) and YMR4 (genotype: MAThis3-11,15, leu2-3, 112ura35, can Res pho5, 3::ura31) by a PEG lithium acetate procedure (Eble, 1992) and selected on uracil dropout medium.
Yeast Growth: Yeast were grown at 30° C. under conditions of constant selection for uracil auxotrophy. YNB (Bio101, Vista, Calif.) supplemented with CSM (uracil dropout) and 2% glucose was used to grow strains having pVT101 constructs. Cycloheximide (Sigma Chemical, St. Louis, Mo.) was added to liquid media or spread on solid media to achieve a final concentration of 500 ng/ml. Nigericin (Sigma Chemical, St. Louis, Mo.) was added to liquid media or spread on solid media to achieve a final concentration of 25 μg/ml. Yeast strains used in cycloheximide selection assays were always propagated in the presence of the cycloheximide on plates and then streaked onto new plates containing drug or no drug, such that induced resistance existed in each strain at the time of the start of the assay. For selection assays on plates, single colonies were streaked; for selection in liquid media 0.01 ml of saturated culture was added to fresh media containing the drug. The plates shown in figures were grown for 3-5 days before photographs were taken. Yeast selection assays in liquid media were quantitated by turbidity as measured by absorbance at OD600.
The same result was obtained when the yeast strains were cultured in nigericin (FIG. 3C, FIG. 3D, FIG. 5B, FIG. 5C). In FIG. 3C and 3D, starting from the top of the dish clockwise, the cells are as follows: INVSC1 (wild-type) overexpressing AtPGP-1, YMk4 containing the vector alone, YMR4 overexpressing AtPGP-I, and INVSC1 containing the vector alone. When grown without drug, all the cells grow (FIG. 3C). […]

[6] = test system: ecto-apyrase of plasma membrane of cholinergic nerve terminal of Torpedo marmorata electric organs; details: Marti et al., 1996; cited from earlier work
[7] = YMR4 (extracellular phosphatase deficient), vector alone, cycloheximide 500 ng/ml or nigericin 25 μg/ml

## Cc1cccc(NS(=O)(=O)c2ccc(-c3ccccc3)cc2)c1 [Formula II]
[1]
  effectiveness of surflan as weed killer in presence of inhibitor: equally effective weed killer at a five fold less concentration

## Nc1ncnc2c1ncn2[C@@H]1O[C@H](COP(=O)(O)CP(=O)(O)O)[C@@H](O)[C@H]1O [α,β-methyleneadenosine 5′-diphosphate]
[2]; AtPGP-1 overexpressing plants
  germination: no germination at all
  germination rate: 83%
[2]; wild-type plants
  germination: no germination at all
  germination rate: 90%

## Nc1ncnc2c1ncn2[C@@H]1O[C@H](CO)[C@@H](O)[C@H]1O [adenosine]
[3]
  effect on resistance to cycloheximide: did not enhance resistance

## N#Cc1c(Cl)c(Cl)c(Cl)c(C#N)c1Cl [chlorothalonil]
[4]
  average radius of inhibition: 0.33 in.

## CO[C@@H]1C[C@@H](C[C@H]2CC[C@H](C)[C@H]([C@@H](C)C(=O)O)O2)O[C@]2(O[C@](C)([C@H]3CC[C@@](C)([C@@H]4O[C@@H]([C@H]5O[C@@](O)(CO)[C@H](C)C[C@@H]5C)C[C@@H]4C)O3)C[C@H]2C)[C@@H]1C [nigericin]
[5]; [7]
  yeast growth in drug: reduced growth

## Cc1ccc(C(=O)Nc2ccc(S(=O)(=O)O)c3cc(S(=O)(=O)O)cc(S(=O)(=O)O)c23)cc1NC(=O)c1cccc(NC(=O)Nc2cccc(C(=O)Nc3cc(C(=O)Nc4ccc(S(=O)(=O)O)c5cc(S(=O)(=O)O)cc(S(=O)(=O)O)c45)ccc3C)c2)c1 [Suramin, 8,8′[Carbonylbis[imino-3,1-phenylenecarbonylimino(4-methyl-3,1-phenylene)carbonylimino]]bis-1,3,5-naphthalenetrisulfonic acid]
[6]
  inhibition of ecto-apyrase activity: potent non-competitive inhibitor

## C[C@@H]1C[C@@H]([C@H](O)CC2CC(=O)NC(=O)C2)C(=O)[C@@H](C)C1 [cycloheximide]
[5]; [7]
  yeast growth in drug: did not grow
[5]; wild-type INVSC1, cycloheximide 500 ng/ml
  yeast growth in drug: did grow
[2]; AtPGP-1 overexpressing plants
  germination rate: 50%
[2]; wild-type plants
  germination rate: 2%

## Nc1ncnc2c1ncn2[C@@H]1O[C@H](COP(=O)(O)OP(=O)(O)OP(=O)(O)O)[C@@H](O)[C@H]1O [ATP]
[3]; 100 mM ATP plus 500 ng/ml cycloheximide, cell lines previously resistant to drug
  yeast growth in high levels of ATP and drug: unable to grow
[3]; cells not previously selected in drug
  yeast growth in high levels of ATP: able to grow
[3]; cells previously grown in drug (cycloheximide-selected), not overexpressing AtPGP-1
  yeast growth in high levels of ATP: not able to grow

## O=P(O)(O)O [phosphate, potassium phosphate]
[3]
  effect on resistance to cycloheximide: did not enhance resistance
